Data as given in publication PMC9668304 (2022).

Columns and labels:
[1] = test system: aminoglycoside aptamer (tobramycin-binding aptamer) (DNA, aptamer) GGGACTTGGTTTAGGTAATGAGTCCC; assay: three-electrode square-wave voltammetry, 240 Hz; details: 137 mM NaCl, 2.7 mM KCl; 1x PBS, ambient temperature; saturable Langmuir-Hill isotherm, reversible; immobilised aptamer
[2] = test system: aminoglycoside aptamer (tobramycin-binding aptamer) (DNA, aptamer) GGGACTTGGTTTAGGTAATGAGTCCC; assay: square-wave pulsed OECT (aptamer on gate), 70 Hz; details: 137 mM NaCl, 2.7 mM KCl; 1x PBS, ambient temperature; saturable Langmuir-Hill isotherm, reversible; immobilised aptamer

binding [1]: yes
binding [2]: yes
SMILES: NC[C@H]1O[C@H](O[C@H]2[C@H](O)[C@@H](O[C@H]3O[C@H](CO)[C@@H](O)[C@H](N)[C@H]3O)[C@H](N)C[C@@H]2N)[C@H](N)C[C@@H]1O
